Some results are limits rather than exact numbers.

The record followed here is patent US9751890B2, “Heteroaryl derivatives as CFTR modulators” (Vertex Pharmaceuticals Incorporated, priority 2008, dated 2017).

T1 sequence (P13569 with tags, fused parts or gaps DEL508-508): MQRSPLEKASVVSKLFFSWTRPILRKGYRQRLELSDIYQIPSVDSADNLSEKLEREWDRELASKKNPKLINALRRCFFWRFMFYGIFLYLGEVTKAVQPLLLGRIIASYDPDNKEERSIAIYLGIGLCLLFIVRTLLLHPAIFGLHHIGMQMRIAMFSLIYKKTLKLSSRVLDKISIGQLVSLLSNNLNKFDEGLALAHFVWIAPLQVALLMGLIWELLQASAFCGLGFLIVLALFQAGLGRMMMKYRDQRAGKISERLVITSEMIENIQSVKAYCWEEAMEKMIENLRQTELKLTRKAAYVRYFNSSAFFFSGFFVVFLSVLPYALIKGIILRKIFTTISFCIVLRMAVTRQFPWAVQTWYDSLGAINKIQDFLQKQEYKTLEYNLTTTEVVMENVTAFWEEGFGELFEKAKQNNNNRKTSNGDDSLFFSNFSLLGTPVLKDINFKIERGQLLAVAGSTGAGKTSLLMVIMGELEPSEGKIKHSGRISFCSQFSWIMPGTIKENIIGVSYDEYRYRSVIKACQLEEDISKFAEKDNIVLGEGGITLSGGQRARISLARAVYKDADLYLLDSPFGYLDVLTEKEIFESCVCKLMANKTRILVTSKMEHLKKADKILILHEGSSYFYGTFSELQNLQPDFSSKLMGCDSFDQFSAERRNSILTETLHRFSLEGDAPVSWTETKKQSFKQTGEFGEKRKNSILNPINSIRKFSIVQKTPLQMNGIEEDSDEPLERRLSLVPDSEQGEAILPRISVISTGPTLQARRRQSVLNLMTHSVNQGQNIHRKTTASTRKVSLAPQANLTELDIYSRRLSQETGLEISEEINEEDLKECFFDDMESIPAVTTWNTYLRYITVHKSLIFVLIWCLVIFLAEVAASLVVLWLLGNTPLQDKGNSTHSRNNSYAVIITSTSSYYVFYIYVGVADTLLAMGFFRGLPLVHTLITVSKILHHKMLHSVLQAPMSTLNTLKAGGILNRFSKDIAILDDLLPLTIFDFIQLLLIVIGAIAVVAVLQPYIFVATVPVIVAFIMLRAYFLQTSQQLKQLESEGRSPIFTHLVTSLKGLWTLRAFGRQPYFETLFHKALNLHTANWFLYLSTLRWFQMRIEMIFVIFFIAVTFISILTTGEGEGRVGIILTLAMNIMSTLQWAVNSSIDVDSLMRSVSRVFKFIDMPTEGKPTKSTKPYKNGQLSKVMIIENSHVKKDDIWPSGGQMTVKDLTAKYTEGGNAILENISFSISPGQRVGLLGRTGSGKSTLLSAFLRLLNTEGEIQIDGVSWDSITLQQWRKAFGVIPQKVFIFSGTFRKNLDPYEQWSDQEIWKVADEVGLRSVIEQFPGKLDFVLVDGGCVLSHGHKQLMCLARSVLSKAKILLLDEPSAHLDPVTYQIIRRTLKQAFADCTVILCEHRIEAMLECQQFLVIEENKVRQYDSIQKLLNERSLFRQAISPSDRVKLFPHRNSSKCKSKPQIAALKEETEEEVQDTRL

The experiment addresses T1, ΔF508-CFTR (Homo sapiens, UniProt P13569, DEL508-508).
T1 construct: expressed in transfected cells
Put plainly: Membrane potential optical assay for ΔF508-CFTR correction (single-addition HTS format). Type of experiment: cell-based. The conditions noted are these: NIH3T3 mouse fibroblasts stably expressing ΔF508-CFTR; 16-24 hrs with compound; activation with 10 μM forskolin and 20 μM genistein; read-out: BinnedMaxEfficacy (PercentActivity). From the text:
Membrane potential optical methods for assaying ΔF508-CFTR modulation properties of compounds.
The assay utilizes fluorescent voltage sensing dyes to measure changes in membrane potential using a fluorescent plate reader (e.g., FLIPR III, Molecular Devices, Inc.) as a readout for increase in functional ΔF508-CFTR in NIH 3T3 cells. The driving force for the response is the creation of a chloride ion gradient in conjunction with channel activation by a single liquid addition step after the cells have previously been treated with compounds and subsequently loaded with a voltage sensing dye.
To identify small molecules that correct the trafficking defect associated with ΔF508-CFTR; a single-addition HTS assay format was developed. Assay Plates containing cells are incubated for ˜2-4 hours in tissue culture incubator at 37° C., 5% CO2, 90% humidity. Cells are then ready for compound exposure after adhering to the bottom of the assay plates.
The cells were incubated in serum-free medium for 16-24 hrs in tissue culture incubator at 37° C., 5% CO2, 90% humidity in the presence or absence (negative control) of test compound. The cells were subsequently rinsed 3× with Krebs Ringers solution and loaded with a voltage sensing redistribution dye. To activate ΔF508-CFTR, 10 μM forskolin and the CFTR potentiator, genistein (20 μM), were added along with Cl^−-free medium to each well. The addition of Cl^−-free medium promoted Cl^− efflux in response to ΔF508-CFTR activation and the resulting membrane depolarization was optically monitored using voltage sensor dyes.
Bath Solution #1: (in mM) NaCl 160, KCl 4.5, CaCl2 2, MgCl2 1, HEPES 10, pH 7.4 with NaOH.
Chloride-free bath solution: Chloride salts in Bath Solution #1 are substituted with gluconate salts.
NIH3T3 mouse fibroblasts stably expressing ΔF508-CFTR are used for optical measurements of membrane potential. The cells are maintained at 37° C. in 5% CO2 and 90% humidity in Dulbecco's modified Eagle's medium supplemented with 2 mM glutamine, 10% fetal bovine serum, 1×NEAA, β-ME, 1× pen/strep, and 25 mM HEPES in 175 cm^2 culture flasks. For all optical assays, the cells were seeded at ˜20,000/well in 384-well matrigel-coated plates and cultured for 2 hrs at 37° C. before culturing at 27° C. for 24 hrs. for the potentiator assay. For the correction assays, the cells are cultured at 27° C. or 37° C. with and without compounds for 16-24 hours.
For `O=C(Nc1cnc(Cc2ccccc2Cl)cn1)C1(c2ccc3c(c2)OCO3)CC1` [Compound 1, 1-(benzo[d][1,3]dioxol-5-yl)-N-(5-(2-chlorobenzyl)pyrazin-2-yl)cyclopropanecarboxamide], the Emax was greater than 100%.
With `COc1ccccc1Nc1cnc(NC(=O)C2(c3ccc4c(c3)OCO4)CC2)cn1` [Compound 2, 1-(benzo[d][1,3]dioxol-5-yl)-N-(5-(2-methoxyphenylamino)pyrazin-2-yl)cyclopropanecarboxamide], the Emax is greater than 100%.
Turning to `COc1ccccc1Cc1ccc(NC(=O)C2(c3ccc4c(c3)OCO4)CC2)cn1` [Compound 3], the Emax was greater than 100%.
Take `COc1ccccc1Cc1ccc(NC(=O)C2(c3ccc4c(c3)OCO4)CC2)nn1` [Compound 4]: the Emax was greater than 100%.
With `O=C(Nc1ccc(CC2CCCCC2)nn1)C1(c2ccc3c(c2)OCO3)CC1` [Compound 5, 1-(benzo[d][1,3]dioxol-5-yl)-N-(6-(cyclohexylmethyl)pyridazin-3-yl)cyclopropanecarboxamide], the Emax is 25 to 100%.
Then `Cc1ncc(NC(=O)C2(c3ccc4c(c3)OCO4)CC2)cc1-c1cccc(S(=O)(=O)N(C)C)c1` [Compound 6], with 25 to 100%; and `O=C(Nc1ccc(-c2ccccc2Cl)nc1)C1(c2ccc3c(c2)OCO3)CC1` [Compound 7, 1-(benzo[d][1,3]dioxol-5-yl)-N-(6-(2-chlorophenyl)pyridin-3-yl)cyclopropanecarboxamide], with greater than 100%; and `Cc1ncc(NC(=O)C2(c3ccc4c(c3)OCO4)CC2)cc1-c1ccc(S(=O)(=O)N(C)C)cc1` [Compound 8], with greater than 100%.
Consider `Cc1c(NC(=O)C2(c3ccc4c(c3)OC(F)(F)O4)CC2)ccnc1-c1cccc(C(=O)O)c1` [Compound 9], for which the Emax was in the range of 25 to 100%.
For the molecule `COc1ccc(-c2nc(NC(=O)C3(c4ccc5c(c4)OC(F)(F)O5)CC3)ncc2C)cn1` [Compound 10, 1-(2,2-difluorobenzo[d][1,3]dioxol-5-yl)-N-(4-(6-methoxypyridin-3-yl)-5-methylpyrimidin-2-yl)cyclopropanecarboxamide], the Emax lay within 25 to 100%.
Then `Cc1cnc(NC(=O)C2(c3ccc4c(c3)OC(F)(F)O4)CC2)nc1-c1ccc(C(=O)O)cc1` [Compound 11, 4-(2-(1-(2,2-difluorobenzo[d][1,3]dioxol-5-yl)cyclopropanecarboxamido)-5-methylpyrimidin-4-yl)benzoic acid], with 25 to 100%.
On to `O=C(Nc1cnc(Cc2ccccc2)cn1)C1(c2ccc3c(c2)OCO3)CC1` [Compound 12], for which the Emax was greater than 100%.
`O=C(Nc1cncc(Cc2ccccc2Cl)n1)C1(c2ccc3c(c2)OCO3)CC1` [Compound 13]: the Emax is greater than 100%.
Consider `CC(Oc1ccc(Cl)cc1)c1ccnc(NC(=O)C2(c3ccc4c(c3)OCO4)CC2)n1` (stereo not shown) [Compound 14, 1-(benzo[d][1,3]dioxol-5-yl)-N-(4-(1-(4-chlorophenoxy)ethyl)pyrimidin-2-yl)cyclopropanecarboxamide], for which the Emax was greater than 100%.
On to `N#Cc1ccc(NC(=O)C2(c3ccc4c(c3)OCO4)CC2)cn1` [Compound 15, 1-(benzo[d][1,3]dioxol-5-yl)-N-(6-cyanopyridin-3-yl)cyclopropanecarboxamide], for which the Emax was 25 to 100%.
Consider `CNC(=O)c1ccc(-c2cc(NC(=O)C3(c4ccc5c(c4)OCO5)CC3)cnc2C)cc1` [Compound 16, 4-(5-(1-(benzo[d][1,3]dioxol-5-yl)cyclopropanecarboxamido)-2-methylpyridin-3-yl)-N-methylbenzamide], for which the Emax lay in the range of 25 to 100%.
As for `Cc1ncc(NC(=O)C2(c3ccc4c(c3)OCO4)CC2)cc1-c1cccc(C(N)=O)c1` [Compound 17], the Emax was in the range of 25 to 100%.
On to `Cc1ccc(S(=O)(=O)c2ncccc2NC(=O)C2(c3ccc4c(c3)OCO4)CC2)cc1` [Compound 18, 1-(benzo[d][1,3]dioxol-5-yl)-N-(2-tosylpyridin-3-yl)cyclopropanecarboxamide], for which the Emax was greater than 100%.
As for `O=C(Nc1ccc(Cc2ccccc2)nc1)C1(c2ccc3c(c2)OCO3)CC1` [Compound 19, 1-(benzo[d][1,3]dioxol-5-yl)-N-(6-benzylpyridin-3-yl)cyclopropanecarboxamide], the Emax was greater than 100%.
With `Cc1ncc(NC(=O)C2(c3ccc4c(c3)OCO4)CC2)cc1-c1cccc(S(N)(=O)=O)c1` [Compound 20, 1-(benzo[d][1,3]dioxol-5-yl)-N-(6-methyl-5-(3-sulfamoylphenyl)pyridin-3-yl)cyclopropanecarboxamide], the Emax was 25 to 100%.
Consider `COc1ccc(C2(C(=O)Nc3cnccn3)CC2)cc1` [Compound 21], for which the Emax lay within 25 to 100%.
With `COc1cc(NC(=O)C2(c3ccc4c(c3)OCO4)CC2)nc(OC)n1` [Compound 22, 1-(benzo[d][1,3]dioxol-5-yl)-N-(2,6-dimethoxypyrimidin-4-yl)cyclopropanecarboxamide], the Emax was greater than 100%.
Consider `O=C(Nc1ncc2c(n1)-c1ccoc1CC2)C1(c2ccc3c(c2)OCO3)CC1` [Compound 23, 1-(benzo[d][1,3]dioxol-5-yl)-N-(5,6-dihydrofuro[2,3-h]quinazolin-2-yl)cyclopropanecarboxamide], for which the Emax lay in the range of 25 to 100%.
For `COc1ccccc1-c1ccc(NC(=O)C2(c3ccc4c(c3)OCO4)CC2)cn1` [Compound 24, 1-(benzo[d][1,3]dioxol-5-yl)-N-(6-(2-methoxyphenyl)pyridin-3-yl)cyclopropanecarboxamide], the Emax is greater than 100%.
Consider `Cc1ccnc(NC(=O)C2(c3ccc4c(c3)OCO4)CC2)n1` [Compound 25, 1-(benzo[d][1,3]dioxol-5-yl)-N-(4-methylpyrimidin-2-yl)cyclopropanecarboxamide], for which the Emax lay in the range of 25 to 100%.
Then `Cc1cccc(Oc2ccc(NC(=O)C3(c4ccc5c(c4)OCO5)CC3)cn2)c1C` [Compound 26, 1-(benzo[d][1,3]dioxol-5-yl)-N-(6-(2,3-dimethylphenoxy)pyridin-3-yl)cyclopropanecarboxamide], with 25 to 100%; and `O=C(Nc1cncc(Cc2ccccc2)n1)C1(c2ccc3c(c2)OCO3)CC1` [Compound 27, 1-(benzo[d][1,3]dioxol-5-yl)-N-(6-benzylpyrazin-2-yl)cyclopropanecarboxamide], with greater than 100%; and `Cc1cnc(NC(=O)C2(c3ccc4c(c3)OC(F)(F)O4)CC2)nc1-c1ccc(=O)[nH]c1` [Compound 28, 1-(2,2-difluorobenzo[d][1,3]dioxol-5-yl)-N-(5-methyl-4-(6-oxo-1,6-dihydropyridin-3-yl)pyrimidin-2-yl)cyclopropanecarboxamide], with 25 to 100%.
On to `Cc1ncc(NC(=O)C2(c3ccc4c(c3)OCO4)CC2)cc1-c1ccc(CO)cc1` [Compound 29], for which the Emax was in the range of 25 to 100%.
On to `CNS(=O)(=O)c1ccc(-c2cc(NC(=O)C3(c4ccc5c(c4)OCO5)CC3)cnc2C)cc1` [Compound 30, 1-(benzo[d][1,3]dioxol-5-yl)-N-(6-methyl-5-(4-(N-methylsulfamoyl)phenyl)pyridin-3-yl)cyclopropanecarboxamide], for which the Emax was greater than 100%.
On to `CC(C)c1ccc(NC(=O)C2(c3ccc4c(c3)OCO4)CC2)cn1` [Compound 31, 1-(Benzo[d][1,3]dioxol-5-yl)-N-(6-isopropylpyridin-3-yl)cyclopropanecarboxamide], for which the Emax fell in the range of 25 to 100%.
As to `O=C(Nc1ccc(-c2ccccc2)nc1)C1(c2ccc3c(c2)OCO3)CC1` [Compound 32, 1-(benzo[d][1,3]dioxol-5-yl)-N-(6-phenylpyridin-3-yl)cyclopropanecarboxamide], the Emax is greater than 100%.
Then `COc1ccccc1Cc1cncc(NC(=O)C2(c3ccc4c(c3)OCO4)CC2)n1` [Compound 33], with greater than 100%; and `COc1ccccc1Cc1cnc(NC(=O)C2(c3ccc4c(c3)OCO4)CC2)cn1` [Compound 34], with 25 to 100%.
In the case of `Cc1cc(O)nc(NC(=O)C2(c3ccc4c(c3)OCO4)CC2)n1` [Compound 35, 1-(benzo[d][1,3]dioxol-5-yl)-N-(4-hydroxy-6-methylpyrimidin-2-yl)cyclopropanecarboxamide], the Emax lay in the range of 25 to 100%.
For the molecule `O=C(Nc1ccnc(Cc2ccccc2)c1)C1(c2ccc3c(c2)OCO3)CC1` [Compound 36, 1-(benzo[d][1,3]dioxol-5-yl)-N-(2-benzylpyridin-4-yl)cyclopropanecarboxamide], the Emax is greater than 100%.
As for `O=C(Nc1ccc(Cc2ccccc2Cl)nc1)C1(c2ccc3c(c2)OCO3)CC1` [Compound 37, 1-(benzo[d][1,3]dioxol-5-yl)-N-(6-(2-chlorobenzyl)pyridin-3-yl)cyclopropanecarboxamide], the Emax was greater than 100%.
